According to paper PMC10281575, “PfCRT mutations conferring piperaquine resistance in falciparum malaria shape the kinetics of quinoline drug binding and transport” (PLOS Pathogens, 2023):
Residue numbers refer to the chain shown, from its start. “And” between values parts separate entries of the source, which are not always exact repeats. Identical values can stand only once.

Legend:
[1] = system: water-injected oocytes; assay: Radiolabeled drug uptake in water-injected control oocytes (intrinsic drug accumulation); assay type: cell-based, Xenopus laevis; settings: 50 μM CQ, pH 6.0; one value per biological replicate
Method: (§1) Adult female X. laevis frogs (purchased from NASCO) were anesthetized by submersion in a solution of 0.3% (w/v) 3-amino benzoate methanesulfonate for 15 min. Sections of the ovary were surgically removed and placed in Ca^2+-free ND96 buffer supplemented with 0.1% collagenase D (w/v; Roche), 0.5% BSA (w/v) and 9 mM Na2HPO4 at 18°C for 14–16 h while gently shaking. The oocytes were then washed several times with ND96 buffer (5 mM HEPES, pH 7.5, 96 mM NaCl, 2 mM KCl, 1.8 mM CaCl2, 1 mM MgCl2), supplemented with […] gentamycin. Healthy-looking stage V-VI oocytes were manually selected and randomly grouped for injection. A codon-optimized coding sequence of PfCRT was subcloned into the pSP64T expression vector and subsequently linearized using the restriction endonuclease BamHI or SalI (New England Biolabs GmbH). RNA for injection was transcribed in vitro using the mMESSAGE mMACHINE SP6 Transcription kit (Ambion), diluted with nuclease-free water to a final concentration of 0.6 μg/μL and stored at -80°C. RNA was injected using precision-bore glass capillary tubes (3.5-inch glass capillaries; Drummond Scientific Co.), which were pulled on a vertical puller (P-87 Flaming/Brown micropipette puller, Sutter Instrument Co.) and graduated. The micropipettes were connected to a microinjector (Nanoject II Auto-Nanoliter Injector, Drummond Scientific Co.). Injection was conducted under stereomicroscopic control. 50 nL of nuclease-free water alone (control oocytes) or 50 nL of nuclease-free water containing 30 ng of RNA was injected per oocyte. Injected oocytes were kept for 72 h at 18°C in ND96 buffer with two daily buffer changes before being used for further experiments.
(§2) Drug transport assays were performed as previously described. Briefly, measurements of radiolabeled drug uptake were made over 1 h, unless otherwise specified. […] Where specified, one or more unlabeled drugs were also present at the indicated concentrations. […] The uptake assays were terminated by removing the oocytes from the reaction medium and washing them three times with 2 mL of ice-cold ND96 buffer. Each oocyte was transferred to a separate scintillation vial and lysed by the addition of 200 μL of a 5% SDS solution. The radioactivity in the sample was measured using a liquid scintillation analyser Tri-Carb 4910 TR (PerkinElmer). Water-injected oocytes were analyzed in parallel as a negative control. The buffer from each condition was measured in duplicate in parallel to each experiment to transform counts per minute into pmol of drug. Drug uptake attributable to PfCRT was determined by subtracting the background uptake from water-injected oocytes from that of PfCRT-expressing oocytes. In all cases, at least three independent experiments were performed on oocytes from different frogs, and for each condition in an experiment, measurements were made from 10 oocytes per treatment.

[2] = target: T1, PfCRT^Dd2_H97Y_F145I (Plasmodium falciparum, UniProt Q8IBZ9, A220S/F145I/H97Y/I356T/K76T/M74I/N326S/N75E/Q271E/R371I); assay: Radiolabeled drug uptake in X. laevis oocytes expressing PfCRT^Dd2_H97Y_F145I; assay type: cell-based; settings: for PfCRTDd2_H97Y_F145I-mediated CQ transport: individual replicates (Fig 11)
T1 construct: expressed in transfected cells; host or cells: Xenopus laevis oocytes injected with in vitro transcribed RNA
T1 sequence (Q8IBZ9 1-424 M74I/N75E/K76T/H97Y/F145I/A220S/Q271E/N326S/I356T/R371I): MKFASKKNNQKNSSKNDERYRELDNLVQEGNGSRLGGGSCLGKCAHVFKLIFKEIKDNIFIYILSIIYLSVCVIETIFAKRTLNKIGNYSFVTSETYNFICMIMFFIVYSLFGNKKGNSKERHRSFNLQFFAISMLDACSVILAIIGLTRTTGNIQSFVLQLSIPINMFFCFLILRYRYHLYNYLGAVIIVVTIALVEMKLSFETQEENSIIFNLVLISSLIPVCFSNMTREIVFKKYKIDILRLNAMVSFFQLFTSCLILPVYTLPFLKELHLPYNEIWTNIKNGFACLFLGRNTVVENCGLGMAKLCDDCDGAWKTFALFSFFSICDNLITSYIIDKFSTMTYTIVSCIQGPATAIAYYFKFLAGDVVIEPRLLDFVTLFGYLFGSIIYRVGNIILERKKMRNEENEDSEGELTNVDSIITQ
Method: as §1, §2

[3] = target: T2, PfCRT^Dd2 (Plasmodium falciparum, UniProt Q8IBZ9, A220S/I356T/K76T/M74I/N326S/N75E/Q271E/R371I); assay: Radiolabeled drug uptake (transport assay) in Xenopus laevis oocytes expressing PfCRT^Dd2; assay type: cell-based; parameters: expressed in transfected cells; host or cells: Xenopus laevis oocytes injected with in vitro transcribed RNA (pSP64T)
T2 sequence (Q8IBZ9 1-424 M74I/N75E/K76T/A220S/Q271E/N326S/I356T/R371I): T1 sequence (Q8IBZ9 1-424 M74I/N75E/K76T/H97Y/F145I/A220S/Q271E/N326S/I356T/R371I) with Y97H, I145F
Method: The two kinetic parameters were derived by fitting the Michaelis-Menten equation to the kinetic data (Table 1).
as §1, §2

[4] = Hill equation fit, 10-500 μM drug, pH 6
[5] = 50 μM CQ, pH 6.0, total uptake, one value per biological replicate

## CCN(CC)CCCC(C)Nc1ccnc2cc(Cl)ccc12 (stereo not shown) [CQ, chloroquine]
[1]
  water-injected uptake of CQ at 10 min: 3.00 pmol oocyte-1 and 2.99 pmol oocyte-1 and 4.09 pmol oocyte-1 and 3.71 pmol oocyte-1 and 0.95 pmol oocyte-1 and 4.05 pmol oocyte-1 and 0.39 pmol oocyte-1 and 2.80 pmol oocyte-1 and 2.76 pmol oocyte-1
  water-injected uptake of CQ at 30 min: 5.48 pmol oocyte-1 and 5.44 pmol oocyte-1 and 5.22 pmol oocyte-1 and 9.34 pmol oocyte-1 and 5.41 pmol oocyte-1 and 1.36 pmol oocyte-1 and 4.88 pmol oocyte-1 and 5.49 pmol oocyte-1 and 4.65 pmol oocyte-1
  water-injected uptake of CQ at 60 min: 10.84 pmol oocyte-1 and 8.71 pmol oocyte-1 and 14.37 pmol oocyte-1 and 7.57 pmol oocyte-1 and 2.74 pmol oocyte-1 and 9.73 pmol oocyte-1 and 10.77 pmol oocyte-1 and 12.13 pmol oocyte-1 and 9.43 pmol oocyte-1
  water-injected uptake of CQ at 90 min: 10.67 pmol oocyte-1 and 8.60 pmol oocyte-1 and 15.53 pmol oocyte-1 and 9.13 pmol oocyte-1 and 10.08 pmol oocyte-1 and 13.10 pmol oocyte-1 and 8.74 pmol oocyte-1
  water-injected uptake of CQ at 120 min: 15.57 pmol oocyte-1 and 11.64 pmol oocyte-1 and 20.59 pmol oocyte-1 and 11.40 pmol oocyte-1 and 13.60 pmol oocyte-1 and 13.51 pmol oocyte-1 and 14.13 pmol oocyte-1 and 14.32 pmol oocyte-1
  water-injected uptake of CQ at 180 min: 15.62 pmol oocyte-1 and 20.71 pmol oocyte-1 and 19.14 pmol oocyte-1 and 17.36 pmol oocyte-1 and 14.82 pmol oocyte-1 and 15.40 pmol oocyte-1 and 19.29 pmol oocyte-1
[2]; 10 µM CQ
  PfCRTDd2_H97Y_F145I-mediated CQ transport: 0.56 pmol oocyte-1 h-1 and 0.57 pmol oocyte-1 h-1 and 0.94 pmol oocyte-1 h-1
[2]; 50 µM CQ
  PfCRTDd2_H97Y_F145I-mediated CQ transport: 1.87 pmol oocyte-1 h-1 and 2.38 pmol oocyte-1 h-1 and 2.20 pmol oocyte-1 h-1 and 4.15 pmol oocyte-1 h-1
[2]; 100 µM CQ
  PfCRTDd2_H97Y_F145I-mediated CQ transport: 6.01 pmol oocyte-1 h-1 and 3.76 pmol oocyte-1 h-1 and 7.81 pmol oocyte-1 h-1 and 7.54 pmol oocyte-1 h-1 and 7.03 pmol oocyte-1 h-1
[2]; 200 µM CQ
  PfCRTDd2_H97Y_F145I-mediated CQ transport: 12.93 pmol oocyte-1 h-1 and 22.31 pmol oocyte-1 h-1 and 9.72 pmol oocyte-1 h-1 and 19.44 pmol oocyte-1 h-1 and 15.86 pmol oocyte-1 h-1
[2]; 300 µM CQ
  PfCRTDd2_H97Y_F145I-mediated CQ transport: 22.26 pmol oocyte-1 h-1 and 28.62 pmol oocyte-1 h-1 and 11.32 pmol oocyte-1 h-1 and 17.61 pmol oocyte-1 h-1
[2]; 400 µM CQ
  PfCRTDd2_H97Y_F145I-mediated CQ transport: 20.46 pmol oocyte-1 h-1 and 24.94 pmol oocyte-1 h-1 and 27.66 pmol oocyte-1 h-1
[2]; 500 µM CQ
  PfCRTDd2_H97Y_F145I-mediated CQ transport: 23.29 pmol oocyte-1 h-1 and 35.24 pmol oocyte-1 h-1 and 26.54 pmol oocyte-1 h-1 and 24.00 pmol oocyte-1 h-1
[2]; [4]
  Hc, Hill coefficient: 1.6 ± 0.2
  Vmax, maximal velocity of drug transport: 35 ± 1 pmol oocyte^-1 h^-1 and 35 ± 4 pmol oocyte^-1 h^-1
[2]; Hill equation fit, 10-500 μM drug, pH 6, read-out: KM, Michaelis constant
  Km: 240 ± 40 µM
[3]; 10 µM CQ, single replicates
  PfCRTDd2-mediated CQ uptake at 10 µM CQ: 0.97 pmol oocyte-1 h-1 and 1.33 pmol oocyte-1 h-1 and 1.00 pmol oocyte-1 h-1
[3]; [5]
  PfCRTDd2 uptake of CQ at 10 min: 5.12 pmol oocyte-1 and 4.60 pmol oocyte-1 and 2.93 pmol oocyte-1 and 4.96 pmol oocyte-1
  PfCRTDd2 uptake of CQ at 30 min: 6.73 pmol oocyte-1 and 14.34 pmol oocyte-1 and 5.71 pmol oocyte-1
  PfCRTDd2 uptake of CQ at 60 min: 19.28 pmol oocyte-1 and 12.33 pmol oocyte-1 and 10.23 pmol oocyte-1 and 14.77 pmol oocyte-1
  PfCRTDd2 uptake of CQ at 90 min: 15.72 pmol oocyte-1 and 19.85 pmol oocyte-1 and 18.63 pmol oocyte-1 and 19.17 pmol oocyte-1
  PfCRTDd2 uptake of CQ at 120 min: 20.73 pmol oocyte-1 and 30.99 pmol oocyte-1 and 21.07 pmol oocyte-1
